Assay [1] concerns the target CDK2/Cyclin A (Homo sapiens, UniProt P24941). The experiment in a line: Inhibition of CDK2/Cyclin A Retinoblastoma Kinase Activity. It counts as biochemical. The conditions noted are these: for Ki: apparent Ki, CDK2/proteolyzed cyclin A, Rb fragment substrate, 25 μM ATP. The method, boiled down:
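Percent inhibition is calculated against DMSO-only wells after subtracting no-enzyme background. The enzyme is human CDK2 complexed with proteolyzed cyclin A, used at 10 nM or 19 nM on an Rb fragment with 25 μM [32/33P]ATP, at pH 7.4 and 30° C.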

Assay [2] concerns the target human CDK4 and genetically truncated (1-264) cyclin D3 (Homo sapiens, UniProt P11802). The experiment in a line: Inhibition of CDK4/Cyclin D Retinoblastoma Kinase Activity. It counts as biochemical. The note with it: for Ki: apparent Ki, CDK4/truncated cyclin D3, Rb fragment substrate, 25 μM ATP. A digest of the protocol: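 Apparent Ki values derive from fitting activity at varied inhibitor concentrations to a competitive (or competitive tight-binding) model. Kinase reactions used 5 nM CDK4/cyclin D3(1-264), Rb fragment substrate and 25 μM ATP. Incubation ran 20 min at 30 °C, extended to 60 min under linear conditions for tight binders.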

Assay [3] deals with HCT-116 cell line. The experiment in a line: Inhibition of cell growth, tetrazolium salt (MTT) assay. The note with it: for HCT-116 % Inhibition at 0.25 μM: 0.25 μM compound; for IC50: Homo sapiens, HCT-116, 120 h, MTT, three to five days, read-out: HCT-116 IC50. In kind it is cell-based. The method, boiled down: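 McCoy's 5A cultures; 4 h pre-incubation; compound dilutions in 0.5% v/v DMSO; 3–5 d, 37° C, 5% CO2; MTT 0.2 mg/mL final, 4 h; formazan dissolved in DMSO, A540; vs 0.5% DMSO vehicle.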

Setting [4] is: 0.1 μM compound, HCT-116, Table 4.
Where [5] appears, read: 0.1 μM compound, HCT-116, Table 3.

Structures can show the parent of a compound that is named as a salt. Where two headings read alike, the source gives them in different places. Some results are limits rather than exact numbers.

Chain of human CDK4 and genetically truncated (1-264) cyclin D3 (P11802 whole entry, the tested form may be a part): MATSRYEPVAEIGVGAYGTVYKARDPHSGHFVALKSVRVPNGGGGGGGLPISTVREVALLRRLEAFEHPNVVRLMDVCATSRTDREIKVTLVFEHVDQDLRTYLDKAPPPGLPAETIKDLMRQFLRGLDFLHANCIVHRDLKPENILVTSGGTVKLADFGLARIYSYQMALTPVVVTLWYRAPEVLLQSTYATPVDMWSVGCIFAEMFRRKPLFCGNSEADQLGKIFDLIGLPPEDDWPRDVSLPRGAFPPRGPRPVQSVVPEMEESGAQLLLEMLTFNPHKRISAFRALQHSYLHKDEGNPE
Chain of human CDK4 and genetically truncated (1-264) cyclin D3 (P30281 1-264 partner): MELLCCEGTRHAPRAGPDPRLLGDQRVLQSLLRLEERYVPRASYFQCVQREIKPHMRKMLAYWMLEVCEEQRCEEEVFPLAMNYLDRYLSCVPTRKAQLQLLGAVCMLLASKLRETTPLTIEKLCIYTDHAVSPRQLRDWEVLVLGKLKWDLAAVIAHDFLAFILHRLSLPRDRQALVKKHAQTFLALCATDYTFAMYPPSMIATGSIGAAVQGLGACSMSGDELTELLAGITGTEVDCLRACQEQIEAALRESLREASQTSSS

`Nc1nc(NC2CCN(C(=O)c3cc(Cl)cc(Cl)c3)CC2)sc1C(=O)c1c(F)cccc1F` [Example R134]: the “CDK2 % Inhibition at 0.03 μM” value in assay [1] (at 0.03 μM) is given as 29%. Moreover, the “CDK4 % Inhibition at 0.03 μM” value in assay [2] (at 0.03 μM) worked out at 51%. For the same compound, in assay [3] (HCT-116 cells, at 0.1 μM), the “HCT-116 % Inhibition at 0.1 μM” value amounted to 45%. In assay [3] (HCT-116 cells), the “HCT-116 5 Inhibition at 0.25 μM” value stood at 95.

In the case of `C/C=C/C(=O)N1CCC(Nc2nc(N)c(C(=O)c3c(F)cccc3F)s2)CC1` [Example Q46], in assay [1] (0.03 μM compound, Table 4), the “CDK2 % Inhibition at 0.03 μM” value was −9%. The “CDK4 % Inhibition at 0.03 μM” value in assay [2] (0.03 μM compound, Table 4) was determined as 25%. Besides, in assay [3] (setting [4]), the “HCT-116 % Inhibition at 0.1 μM” value came out at 0%. Moreover, in assay [3] (HCT-116, Table 4), the “HCT-116 % Inhibition at 0.25 μM” value came out at 27%.

In the case of `Nc1nc(NC2CCN(S(=O)(=O)c3ccc(O)nc3)CC2)sc1C(=O)c1c(F)cccc1F` [Example H1, 1-{4-Amino-2-[1-(6-hydroxy-pyridine-3-sulfonyl)-piperidin-4-ylamino]-thiazol-5-yl}-1-(2,6-difluoro-phenyl)-methanone Trifluoroacetic Acid Salt], the Ki in assay [1] was below 1 nM; in assay [2], 0.72 nM. Further, the IC50 was 2600 nM in assay [3] (first HCT-116 column (c4)) and above 5000 nM in assay [3] (second HCT-116 column (c5)).

As to `CCC(C(=O)N1CCC(Nc2nc(N)c(C(=O)c3c(F)cccc3F)s2)CC1)c1ccccc1` (centres unmarked) [Example R163], the “CDK2 % Inhibition at 0.03 μM” value in assay [1] (at 0.03 μM) is given as 26%. Also, the “CDK4 % Inhibition at 0.03 μM” value in assay [2] (at 0.03 μM) is given as 28%. For the same compound, the “HCT-116 % Inhibition at 0.1 μM” value in assay [3] (HCT-116 cells, at 0.1 μM) is listed as 0%. Further, the “HCT-116 5 Inhibition at 0.25 μM” value in assay [3] (HCT-116 cells) is given as 44.

Regarding `Nc1nc(NC2CCN(C(=O)[C@@H]3CCC(=O)O3)CC2)sc1C(=O)c1c(F)cccc1F` [Example D5, 5S-[1{-4-[4-Amino-5-(2,6-difluoro-benzoyl)-thiazol-2-ylamethano]-piperidin-1-yl}-methanoyl]-tetrahydro-furan-2-one], the Ki in assay [1] amounted to 6.4 nM; in assay [2], 6.8 nM. The IC50 in assay [3] (first HCT-116 column (c4)) and in assay [3] (second HCT-116 column (c5)) was above 5000 nM throughout.

Regarding `N#Cc1cccc(C(=O)N2CCC(Nc3nc(N)c(C(=O)c4c(F)cccc4F)s3)CC2)c1` [Example R129], the “CDK2 % Inhibition at 0.03 μM” value in assay [1] (at 0.03 μM) is 41%. Further, the “CDK4 % Inhibition at 0.03 μM” value in assay [2] (at 0.03 μM) turned out to be 62%. The “HCT-116 % Inhibition at 0.1 μM” value in assay [3] (HCT-116 cells, at 0.1 μM) came out at 0%. Besides, in assay [3] (HCT-116 cells), the “HCT-116 5 Inhibition at 0.25 μM” value was found to be 33.

With `Nc1nc(NC2CCN(C(=O)c3ccccc3F)CC2)sc1C(=O)c1c(F)cccc1F` [Example R104], in assay [1] (at 0.03 μM), the “CDK2 % Inhibition at 0.03 μM” value turned out to be 5%. In addition, the “CDK4 % Inhibition at 0.03 μM” value in assay [2] (at 0.03 μM) was −8%. Also, the “HCT-116 % Inhibition at 0.1 μM” value in assay [3] (HCT-116 cells, at 0.1 μM) came to 0%. In addition, the “HCT-116 5 Inhibition at 0.25 μM” value in assay [3] (HCT-116 cells) is listed as 38.

As for `CN1CCN(c2ccc(S(=O)(=O)N3CCC(Nc4nc(N)c(C(=O)c5c(F)cccc5F)s4)CC3)cn2)CC1` [Example G5, 1-(4-Amino-2-{1-[6-(4-methyl-piperazin-1-yl)-pyridine-3-sulfonyl]-piperidin-4-ylamino}-thiazol-5-yl)-1-(2,6-difluoro-phenyl)-methanone], the Ki in assay [1] and in assay [2] was 1.3 nM in each case. In addition, the IC50 in assay [3] (first HCT-116 column (c4)) was 29 nM; in assay [3] (second HCT-116 column (c5)), above 500 nM.

In the case of `Cn1nc(-c2ccc(S(=O)(=O)N3CCC(Nc4nc(N)c(C(=O)c5c(F)cccc5F)s4)CC3)s2)cc1C(F)(F)F` [Example P44], in assay [1] (0.03 μM compound, Table 3), the “CDK2 % Inhibition at 0.03 μM” value came to 55%. In addition, in assay [2] (0.03 μM compound, Table 3), the “CDK4 % Inhibition at 0.03 μM” value stood at 62%. Further, in assay [3] (setting [5]), the “HCT-116 % Inhibition at 0.1 μM” value came out at 0%. The “HCT-116 % Inhibition at 0.25 μM” value in assay [3] (HCT-116, Table 3) came out at 25%.

`Nc1nc(NC2CCN(S(=O)(=O)c3cc(S(=O)(=O)c4ccccc4)cs3)CC2)sc1C(=O)c1c(F)cccc1F` [Example P41]: the “CDK2 % Inhibition at 0.03 μM” value in assay [1] (0.03 μM compound, Table 3) is given as 80%. The “CDK4 % Inhibition at 0.03 μM” value in assay [2] (0.03 μM compound, Table 3) amounted to 66%. Further, in assay [3] (setting [5]), the “HCT-116 % Inhibition at 0.1 μM” value was determined as 0%. For the same compound, the “HCT-116 % Inhibition at 0.25 μM” value in assay [3] (HCT-116, Table 3) is listed as 26%.

As to `Nc1nc(NC2CCN(S(=O)(=O)c3ccc(Cl)s3)CC2)sc1C(=O)c1c(F)cccc1F` [Example P36], in assay [1] (0.03 μM compound, Table 3), the “CDK2 % Inhibition at 0.03 μM” value is 54%. The “CDK4 % Inhibition at 0.03 μM” value in assay [2] (0.03 μM compound, Table 3) came out at 66%. In assay [3] (setting [5]), the “HCT-116 % Inhibition at 0.1 μM” value turned out to be 8%. Also, in assay [3] (HCT-116, Table 3), the “HCT-116 % Inhibition at 0.25 μM” value was 26%.

In the case of `CC1(C)CN(c2ccc(S(=O)(=O)N3CCC(Nc4nc(N)c(C(=O)c5c(F)cccc5F)s4)CC3)cn2)CCN1` [Example G22, 1-(4-Amino-2-{1-[6-(3,3-dimethyl-piperazin-1-yl)-pyridine-3-sulfonyl]-piperidin-4-ylamino}-thiazol-5-yl)-1-(2,6-difluoro-phenyl)-methanone], the Ki in assay [1] was found to be 0.66 nM; in assay [2] it was 0.22 nM. Further, the IC50 came out at 210 nM in assay [3] (first HCT-116 column (c4)) and 3000 nM in assay [3] (second HCT-116 column (c5)).

As for `Nc1nc(NC2CCN(C(=S)Oc3ccccc3)CC2)sc1C(=O)c1c(F)cccc1F` [Example Q83], the “CDK2 % Inhibition at 0.03 μM” value in assay [1] (0.03 μM compound, Table 4) amounted to 72%. In addition, the “CDK4 % Inhibition at 0.03 μM” value in assay [2] (0.03 μM compound, Table 4) came out at 55%. In addition, the “HCT-116 % Inhibition at 0.1 μM” value in assay [3] (setting [4]) turned out to be 2%. Also, in assay [3] (HCT-116, Table 4), the “HCT-116 % Inhibition at 0.25 μM” value was 25%.

Consider `COc1ccccc1C(=O)N1CCC(Nc2nc(N)c(C(=O)c3c(F)cccc3F)s2)CC1` [Example Q15], for which the “CDK2 % Inhibition at 0.03 μM” value in assay [1] (0.03 μM compound, Table 4) is listed as 25%. For the same compound, the “CDK4 % Inhibition at 0.03 μM” value in assay [2] (0.03 μM compound, Table 4) is reported as 52%. Besides, the “HCT-116 % Inhibition at 0.1 μM” value in assay [3] (setting [4]) stood at 9%. Moreover, the “HCT-116 % Inhibition at 0.25 μM” value in assay [3] (HCT-116, Table 4) was 45%.

In the case of `Nc1nc(NC2CCN(C(=O)c3ccc(Cl)c(Cl)c3)CC2)sc1C(=O)c1c(F)cccc1F` [Example Q20], in assay [1] (0.03 μM compound, Table 4), the “CDK2 % Inhibition at 0.03 μM” value turned out to be 33%. Also, in assay [2] (0.03 μM compound, Table 4), the “CDK4 % Inhibition at 0.03 μM” value is reported as 74%. For the same compound, the “HCT-116 % Inhibition at 0.1 μM” value in assay [3] (setting [4]) stood at 28%. In assay [3] (HCT-116, Table 4), the “HCT-116 % Inhibition at 0.25 μM” value was 69%.

With `Nc1nc(NC2CCN(S(=O)(=O)c3ccc(-c4ccccn4)s3)CC2)sc1C(=O)c1c(F)cccc1F` [Example F6, 1-{4-Amino-2-[1-(5-pyridin-2-yl-thiophene-2-sulfonyl)-piperidin-4-ylamino]-thiazol-5-yl}-1-(2,6-difluoro-phenyl)-methanone], the Ki in assay [1] amounted to 0.43 nM; in assay [2] it was 0.46 nM. For the same compound, the values for the IC50 in assay [3] (first HCT-116 column (c4)) and in assay [3] (second HCT-116 column (c5)) were 170 nM and 450 nM, respectively.

In the case of `Nc1nc(NC2CCN(S(=O)(=O)c3ccc(OCCn4ccnc4)nc3)CC2)sc1C(=O)c1c(F)cccc1F` [Example H9, 1-(4-Amino-2-{1-[6-(2-imidazol-1-yl-ethoxy)-pyridine-3-sulfonyl]-piperidin-4-ylamino}-thiazol-5-yl)-1-(2,6-difluoro-phenyl)-methanone Hydrochloride], the Ki in assay [1] was below 0.5 nM; in assay [2], 1.2 nM. Also, the IC50 was 480 nM in assay [3] (first HCT-116 column (c4)) and 3100 nM in assay [3] (second HCT-116 column (c5)).

`Nc1nc(NC2CCN(S(=O)(=O)c3ccc(CBr)cc3)CC2)sc1C(=O)c1c(F)cccc1F` [Example P68]: in assay [1] (0.03 μM compound, Table 3), the “CDK2 % Inhibition at 0.03 μM” value is on record as 72%. Also, the “CDK4 % Inhibition at 0.03 μM” value in assay [2] (0.03 μM compound, Table 3) was found to be 70%. Moreover, the “HCT-116 % Inhibition at 0.1 μM” value in assay [3] (setting [5]) is 8%. Moreover, the “HCT-116 % Inhibition at 0.25 μM” value in assay [3] (HCT-116, Table 3) amounted to 25%.

For the compound `Nc1nc(NC2CCN(S(=O)(=O)c3ccc(CNC(=O)c4ccc(Cl)cc4)s3)CC2)sc1C(=O)c1c(F)cccc1F` [Example P66], in assay [1] (0.03 μM compound, Table 3), the “CDK2 % Inhibition at 0.03 μM” value is listed as 55%. Besides, the “CDK4 % Inhibition at 0.03 μM” value in assay [2] (0.03 μM compound, Table 3) is given as 57%. The “HCT-116 % Inhibition at 0.1 μM” value in assay [3] (setting [5]) is listed as 12%. Besides, in assay [3] (HCT-116, Table 3), the “HCT-116 % Inhibition at 0.25 μM” value worked out at 34%.

Regarding `CS(=O)(=O)c1ccc(S(=O)(=O)N2CCC(Nc3nc(N)c(C(=O)c4c(F)cccc4F)s3)CC2)cc1` [Example F12, 1-{4-Amino-2-[1-(4-methanesulfonyl-benzenesulfonyl)-piperidin-4-ylamino]-thiazol-5-yl}-1-(2,6-difluoro-phenyl)-methanone], the Ki stood at 0.37 nM in assay [1] and 1.3 nM in assay [2]. Also, the half-inhibitory concentration (IC50) in assay [3] (first HCT-116 column (c4)) was 190 nM; in assay [3] (second HCT-116 column (c5)), 500 nM.

The IC50 is the concentration at which inhibition is half-maximal.
